Data reported in ChEMBL document CHEMBL1795322, “Inhibition of the cellular function of perforin by 1-amino-2,4-dicyanopyrido[1,2-a]benzimidazoles” (Bioorg Med Chem, 2011).

Tests used:
[1] = Toxicity against human KHYG-1 NK cells assessed as cell viability at 20 uM incubated for 24 hrs at 37 degC y Trypan blue exclusion method; format: cell-based; details: read-out: Activity
[2] = target: T1, Perforin-1 (Homo sapiens) (UniProt P14222); assay: Inhibition of perforin released from human KHYG-1 NK cells assessed as inhibition of perforin mediated lysis of human K562 cells at 20 uM in presence of 0.1% BSA by [51Cr] release assay; format: cell-based
T1 sequence (whole entry): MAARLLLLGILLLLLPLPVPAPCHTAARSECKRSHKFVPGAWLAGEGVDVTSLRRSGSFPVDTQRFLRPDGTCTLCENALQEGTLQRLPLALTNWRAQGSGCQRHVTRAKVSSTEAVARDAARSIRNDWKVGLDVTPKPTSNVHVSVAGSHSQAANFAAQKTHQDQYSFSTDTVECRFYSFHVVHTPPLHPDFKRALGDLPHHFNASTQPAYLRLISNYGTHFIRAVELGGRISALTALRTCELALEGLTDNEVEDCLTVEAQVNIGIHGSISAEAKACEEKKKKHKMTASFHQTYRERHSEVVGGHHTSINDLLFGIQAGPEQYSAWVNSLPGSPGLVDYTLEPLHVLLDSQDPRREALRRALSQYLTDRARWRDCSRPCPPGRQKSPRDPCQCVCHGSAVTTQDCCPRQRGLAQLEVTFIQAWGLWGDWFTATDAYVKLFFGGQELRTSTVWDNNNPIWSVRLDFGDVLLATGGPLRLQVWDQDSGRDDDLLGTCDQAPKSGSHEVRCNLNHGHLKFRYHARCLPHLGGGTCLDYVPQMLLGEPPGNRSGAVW

[3] = target: T1, Perforin-1 (Homo sapiens); assay: Inhibition of perforin released from human KHYG-1 NK cells assessed as inhibition of perforin mediated lysis of human K562 cells at 20 uM in presence of 10% mouse serum by [51Cr] release assay; format: cell-based
[4] = Inhibition of recombinant perforin mediated lysis of human Jurkat cells pre-incubated for 30 mins with perforin followed by incubation with Jurkat cells at 37 degC for 4 hrs in presence of 0.1% BSA by [51Cr] release assay

Compound | viability at 24 h, 20 µM [1] [%] | inhibition [2] [%] | inhibition [3] [%] | IC50 [4] [nM]
CCCNC(=O)COc1ccc(-c2c(C#N)c(N)n3c(nc4ccccc43)c2C#N)cc1 | 90 | 41 | 22 | –
Cc1ccc2c(nc3c(C#N)c(-c4ccc(OCC(N)=O)cc4)c(C#N)c(N)n32)c1C | 60 | 36 | 7 | –
CN(C)C(=O)CCc1ccc(-c2c(C#N)c(N)n3c(nc4ccccc43)c2C#N)cc1 | 96 | 49 | 64 | –
N#Cc1c(-c2ccc(C(=O)NCCCO)cc2)c(C#N)c2nc3ccccc3n2c1N | 86 | 0 | 7 | –
N#Cc1c(-c2ccc(OCCO)cc2)c(C#N)c2nc3ccccc3n2c1N | 85 | 15 | 16 | –
CNC(=O)c1ccc(-c2c(C#N)c(N)n3c(nc4ccccc43)c2C#N)cc1 | 84 | 9 | 12 | –
N#Cc1c(-c2ccc(OCC(=O)NCCO)cc2)c(C#N)c2nc3ccccc3n2c1N | 92 | 0 | 6 | –
N#Cc1c(-c2ccc(C(N)=O)cc2)c(C#N)c2nc3ccccc3n2c1N | 79 | 7 | 6 | –
Cc1cc2nc3c(C#N)c(-c4ccc(OCC(N)=O)cc4)c(C#N)c(N)n3c2cc1C | 62 | 38 | 5 | –
CNC(=O)COc1ccc(-c2c(C#N)c(N)n3c(nc4ccccc43)c2C#N)cc1 | 84 | 41 | 42 | –
Cc1cccc2c1nc1c(C#N)c(-c3ccc(OCC(N)=O)cc3)c(C#N)c(N)n12 | 88 | 10 | 8 | –
N#Cc1c(-c2ccc(C(=O)NCCc3ccncc3)cc2)c(C#N)c2nc3ccccc3n2c1N | 62 | 15 | 20 | –
Cc1cc2c(c(=S)[nH]1)C(=O)O/C2=C\c1csc2ccccc12 | 88 | 60 | 6 | 970
N#Cc1c(-c2ccc(C(=O)NCCN3CCOCC3)cc2)c(C#N)c2nc3ccccc3n2c1N | 85 | 1 | 5 | –
N#Cc1c(-c2ccc(C(=O)NCCO)cc2)c(C#N)c2nc3ccccc3n2c1N | 89 | 4 | 12 | –
CC(C)NC(=O)COc1ccc(-c2c(C#N)c(N)n3c(nc4ccccc43)c2C#N)cc1 | 70 | 52 | 22 | –
N#Cc1c(-c2ccc(C(=O)NCC(O)CO)cc2)c(C#N)c2nc3ccccc3n2c1N (configuration not stated) | 84 | 0 | 0 | –
CCNC(=O)c1ccc(-c2c(C#N)c(N)n3c(nc4ccccc43)c2C#N)cc1 | 53 | 19 | 12 | –
N#Cc1c(-c2ccc(OCC(N)=O)cc2)c(C#N)c2nc3ccccc3n2c1N | 86 | 18 | 2 | –
CC(O)CNC(=O)c1ccc(-c2c(C#N)c(N)n3c(nc4ccccc43)c2C#N)cc1 (configuration not stated) | 68 | 0 | 0 | –
CN(C)C(=O)COc1ccc(-c2c(C#N)c(N)n3c(nc4ccccc43)c2C#N)cc1 | 78 | 34 | 25 | –
CCNC(=O)COc1ccc(-c2c(C#N)c(N)n3c(nc4ccccc43)c2C#N)cc1 | 77 | 0 | 11 | –
